Data: US11091490B2, “3-amino-1,5-dihydro-pyrazolo[3,4-d]pyrimidin-4-ones as cyclin dependent kinase inhibitors” (Oncotyrol Center for Personalized Cancer Medicine GMBH, priority 2016, dated 2021)
In brackets after ≈: the same amount, converted by molar mass. Where two headings read alike, the source gives them in different places.

How the values were obtained:
Solubility in water = format: physicochemical
Text: The water solubility of preferred compound 86 and the compound of Example 49 of WO 02/967654 A2 have been compared.

CDK7 = molecular target: T1, CDK7 (Homo sapiens, UniProt P50613); experiment: Target selectivity profile (DiscoverX KinomeScan) CDK7; format: binding
T1 construct: purchased DiscoverX
T1 sequence (P50613 whole entry): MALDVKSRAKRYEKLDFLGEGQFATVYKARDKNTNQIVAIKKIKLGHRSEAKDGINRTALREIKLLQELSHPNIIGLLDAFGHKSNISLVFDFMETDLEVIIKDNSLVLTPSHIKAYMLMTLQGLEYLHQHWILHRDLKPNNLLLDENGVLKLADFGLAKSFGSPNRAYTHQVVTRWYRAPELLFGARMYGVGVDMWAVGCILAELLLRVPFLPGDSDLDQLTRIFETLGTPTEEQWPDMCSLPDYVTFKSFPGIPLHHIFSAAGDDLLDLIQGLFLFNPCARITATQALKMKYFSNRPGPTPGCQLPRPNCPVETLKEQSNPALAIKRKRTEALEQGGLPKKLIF
Text: (§1) 3. Target Selectivity Profile (DiscoverX KinomeScan)
(§2) According to an analysis of kinase inhibitory selectivity carried out in accordance with Karaman M W et al., Nat Biotechnol. 2008 January; 26(1):127-32. doi: 10.1038/nbt1358.

CDK13 = molecular target: T2, CDK13 (Homo sapiens, UniProt Q14004); experiment: Target selectivity profile (DiscoverX KinomeScan) CDK13; format: binding
T2 construct: purchased DiscoverX
T2 sequence (Q14004 whole entry): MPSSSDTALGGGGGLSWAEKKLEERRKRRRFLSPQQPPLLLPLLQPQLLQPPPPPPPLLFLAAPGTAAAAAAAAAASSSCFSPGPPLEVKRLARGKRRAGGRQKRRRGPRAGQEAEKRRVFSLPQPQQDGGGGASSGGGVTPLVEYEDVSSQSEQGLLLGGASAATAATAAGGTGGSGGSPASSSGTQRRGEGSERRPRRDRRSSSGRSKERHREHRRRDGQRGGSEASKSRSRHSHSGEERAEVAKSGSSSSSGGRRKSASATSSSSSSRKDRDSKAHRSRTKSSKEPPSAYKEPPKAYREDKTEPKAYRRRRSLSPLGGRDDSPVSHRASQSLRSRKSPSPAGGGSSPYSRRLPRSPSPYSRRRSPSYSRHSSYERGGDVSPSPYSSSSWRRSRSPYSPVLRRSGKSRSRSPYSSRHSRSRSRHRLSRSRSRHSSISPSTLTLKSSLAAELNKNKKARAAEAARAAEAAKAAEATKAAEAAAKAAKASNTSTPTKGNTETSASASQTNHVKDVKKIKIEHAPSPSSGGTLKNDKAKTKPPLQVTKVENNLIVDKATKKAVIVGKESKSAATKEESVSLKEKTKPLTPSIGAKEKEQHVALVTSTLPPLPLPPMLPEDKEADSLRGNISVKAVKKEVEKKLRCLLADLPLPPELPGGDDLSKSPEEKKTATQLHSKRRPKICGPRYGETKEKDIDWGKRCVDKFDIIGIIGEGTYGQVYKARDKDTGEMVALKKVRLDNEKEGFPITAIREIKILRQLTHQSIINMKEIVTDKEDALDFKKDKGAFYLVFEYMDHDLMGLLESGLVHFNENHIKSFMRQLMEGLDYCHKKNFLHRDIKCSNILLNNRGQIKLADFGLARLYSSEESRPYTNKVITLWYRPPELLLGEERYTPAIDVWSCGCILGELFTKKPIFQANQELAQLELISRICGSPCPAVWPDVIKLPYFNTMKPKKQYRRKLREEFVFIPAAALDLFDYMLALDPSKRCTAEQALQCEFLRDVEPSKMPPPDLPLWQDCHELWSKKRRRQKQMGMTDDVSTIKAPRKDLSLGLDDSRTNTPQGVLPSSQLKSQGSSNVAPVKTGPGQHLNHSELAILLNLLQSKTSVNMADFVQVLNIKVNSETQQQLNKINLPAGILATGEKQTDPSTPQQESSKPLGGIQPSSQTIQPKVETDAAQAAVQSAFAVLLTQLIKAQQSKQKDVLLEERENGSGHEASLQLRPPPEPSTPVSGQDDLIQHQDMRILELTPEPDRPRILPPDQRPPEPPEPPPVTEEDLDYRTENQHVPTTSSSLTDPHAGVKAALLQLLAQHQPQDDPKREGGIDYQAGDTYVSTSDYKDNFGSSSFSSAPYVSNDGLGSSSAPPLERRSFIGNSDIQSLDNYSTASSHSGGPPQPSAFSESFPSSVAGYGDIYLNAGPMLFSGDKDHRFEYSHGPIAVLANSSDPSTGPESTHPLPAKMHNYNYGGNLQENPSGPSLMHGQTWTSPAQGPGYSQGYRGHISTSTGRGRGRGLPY
Text: as §1, §2

most CYP enzymes = experiment: Drug-drug interactions: CYP inhibition; format: in vitro ADME
Text: In assays carried out in accordance with the “Guideline on the investigation of drug interactions”, CPMP/EWP/560/95/Rev. 1 Corr. 2, European Medicines Agency, Committee for Human Medicinal Products (CHMP) and “Guidance for Industry, Drug Interaction Studies—Study Design, Data Analysis, Implications for Dosing, and Labeling Recommendations”, U.S. Department of Health and Human Services.

COLO205 (colon) = experiment: In vitro proliferation screening (Sulforhodamin B) COLO205; format: cell-based, human; conditions: COLO205, 72 h, unit M
Text: (§3) In order to evaluate the antitumor activity of the compounds of the present invention, in particular compound 86, in solid tumors, an in vitro proliferation screening in a panel of 10 different human cancer cell lines derived from solid tumors (see Table 5, below) as a model system.
(§4) Six 10-fold dilutions of compound 86 have been prepared in DMSO, from 5×10^−9 M to 5×10^−4. Single data points have been tested for each concentration. The final concentration of DMSO was 0.1%. The duration of the treatment was 72 hours. The growth inhibition was measured by using Sulforhodamin B, a protein-staining assay in accordance with Vichai V et. al. Nat. Protoc. 2006; 1(3):1112-6. Activity of the agents was determined by evaluating the following parameters: IC50, GI50, IC10, GI10, TGI, LC50, IC90 and GI90 (if these values could be calculated).

HCT116 (colon) = experiment: In vitro proliferation screening (Sulforhodamin B) HCT116; format: cell-based, human; conditions: HCT116, 72 h
Text: as §3, §4

[1] = tested on: HT1080 (connective tissue); experiment: In vitro proliferation screening (Sulforhodamin B) HT1080; format: cell-based, human; conditions: HT1080, 72 h
Text: as §3, §4

MDAMB468 (breast) = experiment: In vitro proliferation screening (Sulforhodamin B) MDAMB468; format: cell-based; conditions: Homo sapiens, MDA-MB-468; MDAMB468, 72 h; unit M
Text: as §3, §4

SKNAS (brain) = experiment: In vitro proliferation screening (Sulforhodamin B) SKNAS; format: cell-based; conditions: Homo sapiens, SK-N-AS, 72 h, unit M
Text: as §3, §4

UO31 (kidney) = experiment: In vitro proliferation screening (Sulforhodamin B) UO31; format: cell-based, human; conditions: UO31, 72 h
Text: as §3, §4

PBMC control cells = experiment: In vitro proliferation screening (Sulforhodamin B) PBMC control cells; format: cell-based; conditions: 72 h
Protocol: as §4

[2] = tested on: LP-1 multiple myeloma cells; experiment: Cell cycle analysis (propidium iodide FACS) LP1; format: cell-based
Text: (§5) In order to investigate the mode of action (MOA) related to the antitumor activity of the compounds of the present invention (in particular compound 86) in solid tumors and multiple myeloma, two experimental strategies were used to confirm the postulated MOA: 1) monitoring of apoptosis induction and 2) cell cycle analysis upon treatment with compound 86. Three cancer cell lines (LP-1, (multiple myeloma cells, DSMZ ACC 41), A375 (melanoma cells), and HeLa (cervix carcinoma cells)) as well as control cells (HS-5 bone marrow stroma cells, ATCC CRL-11882) were used to obtain mechanistic insight into the antitumor activity of compound 86.
(§6) Measuring of DNA content in cells is a well-established method for monitoring cell proliferation, cell cycle, fragmentation of nuclei (apoptosis) and DNA ploidy. Proliferating cells progress through various phases of the cell cycle (G0, G1, S, G2, and M phase). At different stages of the cell cycle and life cycle, cell nuclei contain different amounts of DNA. The DNA content in cell nuclei was analyzed by propidium iodide (PI) staining and FACS analysis after 12 and 24 h of treatment with 100 nM of compound 86 in accordance with the method of Desai Brijal M. et. al. PLOS Vol. 8; Issue 3; p. 1-11, 2013.

A375 melanoma cells [3] = experiment: Cell cycle analysis (propidium iodide FACS) A375; format: cell-based
Text: as §5, §6

[4] = tested on: HeLa cervix carcinoma cells; experiment: Cell cycle analysis (propidium iodide FACS) HeLa; format: cell-based
Text: as §5, §6

[5] = tested on: LP-1 multiple myeloma cells; experiment: PARP cleavage Western blot LP1; format: cell-based; conditions: LP1, 24 h, 100 nM, FIG. 1B legend 0.08 μM
Text: as §5
(§7) Annexin V staining and Poly(ADP-ribose)-Polymerase 1 (PARP) protein cleavage was analyzed to identify a pro-apoptotic effect of compound 86 on tumor cells in accordance with the method of Koopman G, et. al. Blood 1994; 1; 84(5):1415-20. Annexin V allows the identification of cell surface changes that occur early during the apoptotic process by in situ detection, which is ideal for the analysis with adherent cells. Cleavage of PARP-1 by caspases is considered to be a hallmark of apoptosis and was therefore applied to monitor apoptosis induction after 24 h of treatment with 100 nM of compound 86.

A375 melanoma cells [6] = experiment: PARP cleavage Western blot A375; format: cell-based; conditions: A375, 24 h, 100 nM, FIG. 1B legend 0.08 μM
Text: as §5, §7

[7] = tested on: HeLa cervix carcinoma cells; experiment: Annexin V/PI staining HeLa; format: cell-based; conditions: 0.1 μM, 12 h and 24 h
Text: as §5, §7

Compound: CCN(CC)CC(=O)Nc1ccc(Cc2nc3c(c(N(C)C)nn3-c3c(Cl)cc(S(N)(=O)=O)cc3Cl)c(=O)[nH]2)cc1 [Compound 86, N-{4-[1-(2,6-Dichloro-4-sulfamoyl-phenyl)-3-dimethylamino-4-oxo-4,5-dihydro-1H-pyrazolo[3,4-d]pyrimidin-6-ylmethyl]-phenyl}-2-diethylamino-acetamide]
- solubility (Solubility in water; aqueous buffer, pH 2.0, read-out: Solubility in water at pH 2.0): 129 µM (≈ 80.2 µg/mL)
- solubility (Solubility in water; pH 7.4, aqueous buffer, read-out: Solubility in water at pH 7.4): 105 µM (≈ 65.3 µg/mL)
- kinase inhibitory selectivity: CDK7 (CDK7): active as inhibitors
- kinase inhibitory selectivity: CDK13 (CDK13): active as inhibitors
- inhibitory activity of most CYP enzymes (most CYP enzymes): only weak inhibitory activity
- GI50 (COLO205 (colon)): 20.9 nM
- GI50 (COLO205 (colon); Homo sapiens, COLO 205, 72 h): 21 nM
- IC50 (COLO205 (colon); Homo sapiens, COLO 205): 24.2 nM
- GI50 (HCT116 (colon); unit M): 5.82 nM
- GI50 (HCT116 (colon); Homo sapiens, HCT-116, 72 h, rounded value of the conclusions): 5.8 nM
- GI50 (HCT116 (colon); Homo sapiens, HCT-116, 72 h, unit M): 5.82 nM
- IC50 (HCT116 (colon); Homo sapiens, HCT-116, unit M): 6.05 nM
- growth inhibitory response in words [1]: growth inhibition in the middle nanomolar range
- GI50 ([1]; Homo sapiens, HT-1080, unit M): 36.4 nM
- IC50 ([1]; Homo sapiens, HT-1080, unit M): 38 nM
- GI50 (MDAMB468 (breast)): 38.9 nM
- IC50 (MDAMB468 (breast)): 43 nM
- GI50 (SKNAS (brain)): 41.2 nM
- IC50 (SKNAS (brain)): 74.3 nM
- GI50 (UO31 (kidney); Homo sapiens, UO-31, unit M): 339 nM
- IC50 (UO31 (kidney); Homo sapiens, UO-31, unit M): 360 nM
- growth inhibitory response in words (UO31 (kidney)): responded rather weakly in the micromolar range
- response to treatment (growth inhibition) (PBMC control cells): resistant
- cell cycle profile (DNA content) ([2]; LP1, 0.1 μM, 12 and 24 h (FIG. 1A)): cell cycle defects and a progressive enrichment of the sub G1 group
- cell cycle profile (DNA content) ([2]; LP1, 100 nM, 12 h): strong enrichment of nuclei in the sub_G1 fraction
- cell cycle profile (DNA content) ([2]; LP1, 100 nM, 24 h): almost all intact nuclei of LP1 cells disappeared
- cell cycle profile (DNA content) (A375 melanoma cells [3]; A375, 0.1 μM, 12 and 24 h (FIG. 1A)): cell cycle defects and a progressive enrichment of the sub G1 group
- cell cycle profile (DNA content) (A375 melanoma cells [3]; A375, 100 nM, 12 h): G2/M arrest
- cell cycle profile (DNA content) (A375 melanoma cells [3]; A375, 100 nM, 24 h): started to enrich in the sub_G1 fraction
- cell cycle profile (DNA content) ([4]; 0.1 μM, 12 and 24 h (FIG. 1A)): cell cycle defects and a progressive enrichment of the sub G1 group
- cell cycle profile (DNA content) ([4]; 100 nM, 12 h): unaffected
- cell cycle profile (DNA content) ([4]; 100 nM, 24 h): clear response
- PARP cleavage [5]: specific induction of PARP cleavage
- PARP cleavage ([5]; listed as Otviciclib): induction of PARP cleavage
- PARP cleavage (A375 melanoma cells [6]): specific induction of PARP cleavage
- PARP cleavage (A375 melanoma cells [6]; listed as Otviciclib): induction of PARP cleavage
- induction of apoptosis (Annexin V/PI staining) [7]: specific induction of apoptosis
- induction of apoptosis (Annexin V/PI staining) ([7]; listed as Otviciclib): reproducible induction of apoptosis
